From patent publication US7875624B2, “Modulating and measuring cellular adhesion” (Novartis Vaccines and Diagnostics, Inc., priority 2004, dated 2011)
Entries after “also recorded” stand apart in the source; their conditions may differ.

Tests used:
ICAM = experiment: Western blot analysis of HUVECs, ICAM; details: 100 nM, lysates at 0, 16 and 24 hours
VCAM = experiment: Western blot analysis of HUVECs, VCAM; details: 100 nM, lysates at 0, 16 and 24 hours
VEGF-A = VEGF-A ELISA in KM12L4a tumor lysates; assay type: in vivo, mouse; details: 100 mg/kg for 7 days; KM12L4a tumors in Nu/nu mice; listed as 4-amino-5-fluoro-3-[6-(4-methylpiperazin-1-yl)-1H-benzimidazol-2-yl]quinolin-2(1)
Text: […]. Tumor cells (2×10^6 KM12L4a) were implanted subcutaneous into the flank of mice and allowed to grow to the desired size before treatment was initiated. […] The tumors were resected and flash frozen in liquid nitrogen.
VEGF-A protein levels in KM12L4a tumor lysates were quantified using a commercially available ELISA kit (R and D Systems, Minneapolis, Minn.) according to the manufacturer's procedures.

4T1 breast tumor cells = experiment: 4T1 spontaneously metastatic mouse breast tumor model: subcutaneous tumor growth, liver and lung metastases; assay type: in vivo
soluble ICAM = experiment: Soluble ICAM ELISA in serum of 4T1 tumor bearing mice; details: 4T1 breast tumors
α5 integrin = experiment: Western blot analysis of HUVECs, α5 integrin; details: 100 nM, lysates at 0, 16 and 24 hours
αv integrin = experiment: Western blot analysis of HUVECs, αv integrin; details: 100 nM; lysates at 0, 16 and 24 hours
soluble VCAM = experiment: Soluble VCAM ELISA in serum of 4T1 tumor bearing mice; details: 4T1 breast tumors
MMP-9 = experiment: Zymography for MMP-9 activity in KM12L4a human colon xenografts; assay type: in vivo, mouse; details: 100 mg/kg for 7 days; KM12L4a tumors in Nu/nu mice; listed as 4-amino-5-fluoro-3-[6-(4-methylpiperazin-1-yl)-1H-benzimidazol-2-yl]quinolin-2(1)
Experimental: Female Nu/nu mice (6-8 weeks old, 18-22 grams) were obtained from Charles River Laboratories (Wilmington, Mass.). Tumor cells (2×10^6 KM12L4a) were implanted subcutaneous into the flank of mice and allowed to grow to the desired size before treatment was initiated. […] The tumors were resected and flash frozen in liquid nitrogen.
After electrophoresis, gels were washed twice for 15 minutes in 2.5% Triton X-100, incubated overnight at 37° C. in 50 mM Tris-HCl and 10 mM CaCl2, pH 7.6, and stained with 0.5% Comassie Blue and destained with 50% methanol.

[1] = tested on: KM12L4a human colon tumors; experiment: Antibody immunohistochemistry staining of KM12L4a human colon tumors (Ki67, PARP, caspase-3, CD31); assay type: in vivo, mouse; details: 100 mg/kg for 7 days
[2] = listed as 4-amino-5-fluoro-3-[6-(4-methylpiperazin-1-yl)-1H-benzimidazol-2-yl]quinolin-2(1)
[3] = 10 mpk orally, daily for 18 days
[4] = 30 mpk orally, daily for 18 days
[5] = 60 mpk orally, daily for 18 days
[6] = 100 mpk orally, daily for 18 days
[7] = 150 mpk orally, daily for 18 days
[8] = orally, daily, after 18 days of dosing, BALB/C mice
[9] = 100 or 150 mg/kg orally, daily for 18 days
[10] = varying amounts (10-150 mg/kg), 18 days

CN1CCN(c2ccc3nc(-c4c(N)c5c(F)cccc5[nH]c4=O)[nH]c3c2)CC1 [Compound 1]
expression of ICAM in HUVECs (ICAM): decreased
expression of ICAM in HUVECs (ICAM; [2]): decrease
expression of VCAM in HUVECs (VCAM): decreased
expression of VCAM in HUVECs (VCAM; [2]): decrease
VEGF production in tumors (ELISA) (VEGF-A): reduced VEGF production; also recorded: decrease
growth of the subcutaneous tumor inhibited compared to control (4T1 breast tumor cells; 10-150 mg/kg orally, daily for 18 days, BALB/C mice): 40-80%
# of Liver Metastases Mean +/− SD (4T1 breast tumor cells; [3]): 22.0 +/− 32.3
Liver Metastases: Incidence of Metastases (4T1 breast tumor cells; [3]): 7/8
# of Liver Metastases Mean +/− SD (4T1 breast tumor cells; [4]): 3.1 +/− 3.5
Liver Metastases: Incidence of Metastases (4T1 breast tumor cells; [4]): 6/10
# of Liver Metastases Mean +/− SD (4T1 breast tumor cells; [5]): 0.7 +/− 0.9
Liver Metastases: Incidence of Metastases (4T1 breast tumor cells; [5]): 5/10
# of Liver Metastases Mean +/− SD (4T1 breast tumor cells; [6]): 4.1 +/− 13.0
Liver Metastases: Incidence of Metastases (4T1 breast tumor cells; [6]): 1/10
# of Liver Metastases Mean +/− SD (4T1 breast tumor cells; [7]): 0.0 +/− 0.0
Liver Metastases: Incidence of Metastases (4T1 breast tumor cells; [7]): 0/9
liver metastases inhibition (4T1 breast tumor cells; [8]): completely inhibited
lung metastases inhibited (4T1 breast tumor cells; [8]): 60-97%
inhibition of soluble ICAM in serum (soluble ICAM; [9]): greater than 70%
soluble ICAM in serum, effect in words (soluble ICAM; [10]): dose-dependent reduction
expression of α5 integrin in HUVECs (α5 integrin): decreased
expression of α5 integrin in HUVECs (α5 integrin; [2]): decrease
expression of αv integrin in HUVECs (αv integrin): not αν integrin
inhibition of soluble VCAM in serum (soluble VCAM; [9]): 44-47%
soluble VCAM in serum, effect in words (soluble VCAM; [10]): dose-dependent reduction
MMP-9 activity in tumors (zymography) (MMP-9): decreased MMP-9 activity; also recorded: decrease
apoptosis (PARP cleavage and caspase-3) [1]: induced apoptosis
tumor cell proliferation (Ki67) [1]: decreased tumor cell proliferation
vascular density (CD31) [1]: reduced vascular density
